Data: patent US8927500B2, “Peptidomimetic macrocycles” (Aileron Therapeutics, Inc., priority 2012, dated 2015)
Like-named read-outs stand apart in the source and are kept apart here. Where a SMILES comes first, the peptide text is derived from it. Bridges are numbered along the chain shown (N, C = ends). [ ]: non-standard residue; d: D form. dPhe(4-CF3) = N[C@H](Cc1ccc(C(F)(F)F)cc1)C(=O)O; R8 = C=CCCCCCC[C@@](C)(N)C(=O)O; Cba = N[C@@H](CC1CCC1)C(=O)O; R5 = C=CCCC[C@@](C)(N)C(=O)O; hLeu = CC(C)CC[C@H](N)C(=O)O; S5 = C=CCCC[C@](C)(N)C(=O)O; Nle = CCCC[C@H](N)C(=O)O; Ac3c = NC1(C(=O)O)CC1

Tests used:
MDM2 = MDM2 (Homo sapiens, UniProt Q00987); experiment: Competitive fluorescence polarization assay for MDM2; format: binding; conditions: competitive FP assay, MDM2
Chain of MDM2 (Q00987 1-125): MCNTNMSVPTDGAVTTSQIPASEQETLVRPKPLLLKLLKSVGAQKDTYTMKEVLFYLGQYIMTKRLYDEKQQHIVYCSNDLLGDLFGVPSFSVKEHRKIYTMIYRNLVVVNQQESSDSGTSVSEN

MDMX = target: T1, MDMX (Homo sapiens, UniProt O15151); experiment: Competitive fluorescence polarization assay for MDMX; format: binding; conditions: competitive FP assay
T1 sequence (O15151 1-125): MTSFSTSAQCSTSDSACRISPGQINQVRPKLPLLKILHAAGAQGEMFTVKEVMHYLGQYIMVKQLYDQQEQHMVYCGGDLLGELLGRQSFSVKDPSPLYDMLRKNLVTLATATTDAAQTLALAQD

| SMILES | IC50 (MDM2; read-out: IC50 (MDM2)) [nM] | Ki (MDM2; read-out: Ki (MDM2)) [nM] | IC50 (MDMX; read-out: IC50 (MDMX)) [nM] | Ki (MDMX; read-out: Ki (MDMX)) [nM] | IC50 (MDM2; IC50 (MDM2)) [nM] | Ki (MDM2; Ki (MDM2)) [nM] | IC50 (MDMX; IC50 (MDMX)) [nM] | Ki (MDMX; Ki (MDMX)) [nM] |
| --- | --- | --- | --- | --- | --- | --- | --- | --- |
| CCCC[C@H](NC(=O)[C@H](C)NC(=O)[C@H](C)NC(=O)[C@]1(C)CCCC=CCCCCCC[C@@](C)(NC(=O)[C@H](Cc2ccccc2)NC(=O)[C@H](C)NC(=O)[C@H](C)NC(=O)[C@H](C)NC(=O)[C@H](C)NC(C)=O)C(=O)N[C@@H](CCC(=O)O)C(=O)N[C@@H](Cc2ccc(O)cc2)C(=O)N[C@@H](Cc2c[nH]c3ccccc23)C(=O)N[C@@H](C)C(=O)N[C@@H](CCC(N)=O)C(=O)N[C@@H](CC(C)C)C(=O)N1)C(=O)N[C@@H](C)C(N)=O [compound 373] (Ac-AAAAF[R8]EYWAQL[S5]AA[Nle]A-NH2; staple 6-13) | 10 to 100 | 10 to 100 | 10 to 100 | 10 to 100 |  |  |  |  |
| CCCC[C@H](NC(=O)[C@H](Cc1c[nH]c2ccccc12)NC(=O)[C@H](C)NC(=O)[C@]1(C)CCCC=CCCCCCC[C@@](C)(NC(=O)[C@H](Cc2ccccc2)NC(=O)[C@@H](NC(=O)[C@H](CC(C)C)NC(C)=O)[C@@H](C)O)C(=O)N[C@@H](CCC(=O)O)C(=O)N[C@@H](Cc2ccc(O)cc2)C(=O)N[C@@H](Cc2c[nH]c3ccccc23)C(=O)N[C@@H](C)C(=O)N[C@@H](CCC(N)=O)C(=O)N[C@@H](CC2CCC2)C(=O)N1)C(=O)N[C@@H](C)C(N)=O [compound 241] (Ac-LTF[R8]EYWAQ[Cba][S5]AW[Nle]A-NH2; staple 4-11) | 10 to 100 | < 10 | 100 to 1000 | 10 to 100 |  |  |  |  |
| CC(=O)N[C@@H](C(=O)N[C@H](C)C(=O)N[C@H](Cc1c[nH]c2ccccc12)C(=O)N[C@H](Cc1ccc(O)cc1)C(=O)N[C@]1(C)CCCC=CCCC[C@](C)(C(=O)N[C@H](CC(C)C)C(=O)N[C@H](CC(C)C)C(=O)N[C@H](CCCNC(=N)N)C(N)=O)NC(=O)[C@@H](CCC(=O)O)NC(=O)[C@@H](Cc2ccc(C(F)(F)F)cc2)NC(=O)[C@@H](CC(N)=O)NC1=O)[C@H](C)O [compound 753] (Ac-[dT][dA][dW][dY][R5][dN][dPhe(4-CF3)][dE][R5][dL][dL][dR]-NH2; staple 5-9) | 10 to 100 |  | > 1000 |  |  |  |  |  |
| CC(=O)N[C@@H](C(=O)N[C@H](C)C(=O)N[C@H](Cc1c[nH]c2ccccc12)C(=O)N[C@H](Cc1ccc(O)cc1)C(=O)N[C@H](C)C(=O)N[C@]1(C)CCCC=CCCC[C@](C)(C(=O)N[C@H](CC(C)C)C(=O)N[C@H](CCCNC(=N)N)C(N)=O)NC(=O)[C@@H](CCCCN)NC(=O)[C@@H](CCC(=O)O)NC(=O)[C@@H](Cc2ccc(C(F)(F)F)cc2)NC1=O)[C@H](C)O [compound 754] | 100 to 1000 |  | > 1000 |  |  |  |  |  |
| CCCC[C@H](NC(=O)[C@H](C)NC(=O)[C@H](C)NC(=O)[C@]1(C)CCCC=CCCCCCC[C@@](C)(NC(=O)[C@H](Cc2ccccc2)NC(=O)[C@@H](NC(=O)[C@H](CC(C)C)NC(C)=O)[C@@H](C)O)C(=O)N[C@@H](C)C(=O)N[C@@H](Cc2ccc(O)cc2)C(=O)N[C@@H](Cc2c[nH]c3ccccc23)C(=O)N[C@@H](C)C(=O)N[C@@H](CCC(N)=O)C(=O)N[C@@H](CC(C)C)C(=O)N1)C(=O)N[C@@H](C)C(N)=O (single isomer, unassigned) [compound 68] | 100 to 1000 | 10 to 100 | 100 to 1000 | 10 to 100 |  |  |  |  |
| CC(=O)N[C@@H](CC(C)C)C(=O)N[C@H](C(=O)N[C@@H](Cc1ccccc1)C(=O)N[C@]1(C)CCCCCCC=CCCC[C@@](C)(C(=O)N[C@@H](CO)C(=O)N[C@@H](C)C(=O)N[C@@H](Cc2ccccc2)C(N)=O)NC(=O)[C@H](CC2CCC2)NC(=O)[C@H](CCC(N)=O)NC(=O)[C@H](CO)NC(=O)[C@H](Cc2c[nH]c3ccccc23)NC(=O)[C@H](Cc2ccc(O)cc2)NC(=O)[C@H](C)NC1=O)[C@@H](C)O [compound 262] (Ac-LTF[R8]AYWSQ[Cba][S5]SAF-NH2; staple 4-11) | 10 to 100 | < 10 | 100 to 1000 | 10 to 100 |  |  |  |  |
| CSCC[C@H](NC(=O)[C@H](C)NC(=O)[C@H](C)NC(=O)[C@]1(C)CCCC=CCCCCCC[C@@](C)(NC(=O)[C@H](Cc2ccccc2)NC(C)=O)C(=O)N[C@@H](C)C(=O)N[C@@H](Cc2ccc(O)cc2)C(=O)N[C@@H](Cc2c[nH]c3ccccc23)C(=O)N[C@@H](CCC(=O)O)C(=O)NC2(CC2)C(=O)N[C@@H](CC(C)C)C(=O)N1)C(N)=O [compound 16] (Ac-F[R8]AYWE[Ac3c]L[S5]AAM-NH2; staple 2-9) | 10 to 100 | < 10 | 10 to 100 | 10 to 100 |  |  |  |  |
| CCCC[C@H](NC(=O)[C@H](C)NC(=O)[C@H](C)NC(=O)[C@]1(C)CCC/C=C/CCCCCC[C@@](C)(NC(=O)[C@H](Cc2ccccc2)NC(=O)[C@@H](NC(=O)[C@H](CC(C)C)NC(C)=O)[C@@H](C)O)C(=O)N[C@@H](C)C(=O)N[C@@H](Cc2ccc(O)cc2)C(=O)N[C@@](C)(Cc2c[nH]c3ccccc23)C(=O)N[C@@H](C)C(=O)N[C@@H](CCC(N)=O)C(=O)N[C@@H](CC(C)C)C(=O)N1)C(=O)N[C@@H](C)C(N)=O [compound 388] | 100 to 1000 | 10 to 100 | 10 to 100 | < 10 |  |  |  |  |
| CCCC[C@H](NC(=O)[C@H](C)NC(=O)[C@H](C)NC(=O)[C@]1(C)CCCC=CCCCCCC[C@@](C)(NC(=O)[C@H](Cc2ccccc2)NC(=O)[C@@H](NC(=O)[C@H](CC(C)C)NC(C)=O)[C@@H](C)O)C(=O)N[C@@H](CCC(=O)O)C(=O)N[C@@H](Cc2ccc(O)cc2)C(=O)N[C@@H](Cc2c[nH]c3ccccc23)C(=O)N[C@@H](C)C(=O)N[C@@H](CCC(N)=O)C(=O)N[C@@H](CCC(C)C)C(=O)N1)C(=O)N[C@@H](C)C(N)=O [compound 318] (Ac-LTF[R8]EYWAQ[hLeu][S5]AA[Nle]A-NH2; staple 4-11) | 10 to 100 | 10 to 100 | 100 to 1000 | 10 to 100 |  |  |  |  |
| CC(=O)N[C@@H](CC(C)C)C(=O)N[C@H](C(=O)N[C@@H](Cc1ccccc1)C(=O)N[C@]1(C)CCCCCCC=CCCC[C@@](C)(C(=O)N[C@@H](CO)C(=O)N[C@@H](CCCNC(=N)N)C(=O)N[C@@H](C)C(N)=O)NC(=O)[C@H](CC2CCC2)NC(=O)[C@H](CCC(N)=O)NC(=O)[C@H](C)NC(=O)[C@H](Cc2c[nH]c3ccccc23)NC(=O)[C@H](Cc2ccc(O)cc2)NC(=O)[C@H](CCC(=O)O)NC1=O)[C@@H](C)O [compound 365] (Ac-LTF[R8]EYWAQ[Cba][S5]SRA-NH2; staple 4-11) | 10 to 100 | < 10 | 10 to 100 | < 10 |  |  |  |  |
| CC(C)C[C@H](NC(=O)CN(C)C)C(=O)N[C@H](C(=O)N[C@@H](Cc1ccccc1)C(=O)N[C@]1(C)CCCCCCC=CCCC[C@@](C)(C(=O)N[C@@H](C)C(=O)N[C@@H](C)C(=O)N[C@@H](C)C(=O)N[C@@H](C)C(=O)N[C@@H](C)C(=O)N[C@H](C)C(N)=O)NC(=O)[C@H](CC(C)C)NC(=O)[C@H](CCC(N)=O)NC(=O)[C@H](C)NC(=O)[C@H](Cc2c[nH]c3ccccc23)NC(=O)[C@H](Cc2ccc(O)cc2)NC(=O)[C@H](CCC(=O)O)NC1=O)[C@@H](C)O (single isomer, unassigned) [compound 439] |  |  |  |  | < 10 | < 10 | 10 to 100 | < 10 |
| CCCC[C@H](NC(=O)[C@H](C)NC(=O)[C@H](C)NC(=O)[C@]1(C)CCCC=CCCCCCC[C@@](C)(NC(=O)[C@H](Cc2ccccc2)NC(=O)[C@@H](NC(=O)[C@H](C)NC(=O)[C@H](C)NC(C)=O)[C@@H](C)O)C(=O)N[C@@H](C)C(=O)N[C@@H](Cc2ccc(O)cc2)C(=O)N[C@@H](Cc2c[nH]c3ccccc23)C(=O)N[C@@H](C)C(=O)N[C@@H](CCC(N)=O)C(=O)N[C@@H](CC(C)C)C(=O)N1)C(=O)N[C@@H](C)C(N)=O [compound 319] (Ac-AATF[R8]AYWAQL[S5]AA[Nle]A-NH2; staple 5-12) | 10 to 100 | 10 to 100 | 100 to 1000 | 100 to 1000 |  |  |  |  |
| CCCC[C@H](NC(=O)[C@H](C)NC(=O)[C@H](C)NC(=O)[C@]1(C)CCCC=CCCCCCC[C@@](C)(NC(=O)[C@H](Cc2ccccc2)NC(=O)[C@@H](NC(=O)[C@H](CC(C)C)NC(C)=O)[C@@H](C)O)C(=O)N[C@@H](C)C(=O)N[C@@H](Cc2ccc(O)cc2)C(=O)N[C@@H](Cc2c[nH]c3ccccc23)C(=O)N[C@@H](C)C(=O)N[C@@H](CCC(N)=O)C(=O)N[C@@H](CC(C)C)C(=O)N1)C(=O)NC(C)(C)C(N)=O (single isomer, unassigned) [compound 398] | 10 to 100 | < 10 | 10 to 100 | 10 to 100 |  |  |  |  |
| CCCC[C@H](NC(=O)[C@@H](C)NC(=O)[C@H](C)NC(=O)[C@]1(C)CCCC=CCCCCCC[C@@](C)(NC(=O)[C@H](Cc2ccccc2)NC(=O)[C@@H](NC(=O)[C@H](CC(C)C)NC(C)=O)[C@@H](C)O)C(=O)N[C@@H](C)C(=O)N[C@@H](Cc2ccc(O)cc2)C(=O)N[C@@H](Cc2c[nH]c3ccccc23)C(=O)N[C@@H](C)C(=O)N[C@@H](CCC(N)=O)C(=O)N[C@@H](CC(C)C)C(=O)N1)C(=O)N[C@@H](C)C(N)=O (single isomer, unassigned) [compound 394] | < 10 | < 10 | 10 to 100 | < 10 |  |  |  |  |
